The source of these data is patent EP0006772A1, “Thieno and furopyridone derivatives, process for their preparation and medicinal preparations containing them” (OMNIUM FINANCIER AQUITAINE POUR L'HYGIENE ET LA SANTE - …, priority 1978, dated 1980).

Assay [1] concerns agrégation plaquettaire à l'A.D.P. The experiment in a line: ADP-induced platelet aggregation in plasma of orally treated rats (ex vivo). Particulars: Rattus norvegicus, 100 mg/kg oral, 3 hours after treatment, versus control, 10 µM A.D.P., read-out: Pourcentage d'inhibition A.D.P. On the set-up: species or system rats de souche Wistar. How it is done: (§1) Chez des rats de souche Wistar, on effectue un prélèvement sanguin dans la veine jugulaire. A partir de ce sang citraté et après centrifugation, on reconstitue un plasma contenant 600 000 ± 20 000 plaquettes par mm^3, qui servira dans toutes les mesures d'agrégation.
(§2) On place 0,4 ml de plasma dans un tube siliconé pourvu d'une barre aimantée elle-même siliconée. Le tube est introduit dans un agrégomètre couplé à un appareil permettant d'enregistrer les variations de densité optique. Lorsque la transmission de la lumière a atteint une valeur stable, on introduit dans le tube 0,5 ml d'une solution contenant 10 µM d'A.D.P. (Adénosine-Di Phosphate).
(§3) L'agrégation des plaquettes provoque alors une augmentation de la transmission lumineuse suivie d'une diminution consécutive à la phase de désagrégation.
(§4) La variation maximale de densité optique ainsi déterminée caractérise l'intensité de l'agrégation.
(§5) Différents lots de 20 rats sont uiilisés, chaque lot recevant un dérivé à tester par la vcie orale, à la dose de 100 mg/kg de poids corporel. Les résultats obtenus au cours de ces 2 essais sont rapportés dans le Tableau I suivant qui indique le pourcentage d'inhibition de l'agrégation plaquettaire obtenu, par rapport au témoin, 3 heures après le traitement par le médicament de l'invention, dans le test de l'A.D.P. et au collagène.

In assay [2] the test system is oedème généralisé à l'ovalbumine. Nature of the assay: Ovalbumin-induced generalised oedema. It is filed as in vivo. The note with it: po, rat, 100 mg/kg per os 1 h before and together with ovalbumin. How it is done:
Une injection intrapéritonéale simultanée de 1 ml d'ovalbumine et de 0,5 ml d'une solution aqueuse de bleu Evans à 1 % est effectuée sur le rat. D'autre part, on administre per os aux animaux du lot traité 100 mg/kg du dérivé à tester 1 heure avant et en même temps que l'ovalbumine. L'intensité du phénomène ainsi provoqué est notée par un chiffre allant de 1 à 5 suivant la progression du syndrome inflammatoire. On détermine ainsi la moyenne de l'intensité oedémateuse et le pourcentage de diminution de la réaction oedémateuse par rapport au témoin, en fonction du temps.
Les pourcentages d'activité anti-inflammatoire obtenus à la 2ème heure et 3ème heure après l'injection d'ovalbumine sont consignés dans le Tableau III suivant.

Assay [3] deals with oedème localisé provoqué par la carragénine. Nature of the assay: Carrageenan-induced localised paw oedema. It is filed as in vivo. Particulars: rat, 100 mg/kg oral (1 h before, at injection, 1 h and 2.5 h after). The protocol: Une solution de carragénine (0,1 ml) à 1 % est injectée dans les fléchisseurs métatarsiens de la patte postérieure droite du rat au temps O. Les animaux du lot traité reçoivent en outre, par la voie orale, 100 mg par kg du dérivé à tester respectivement 1 heure avant, en même temps que l'injection de l'agent phlogogène, puis 1 heure et 2 heures et demi après. Les mesures qui sont effectuées à l'aide du micromètre de ROCH aux temps 0, 1 heure, 2 heures, 3 heures et 5 heures après l'administration de la carragénine permettent de déterminer, en fonction du temps, le pourcentage d'activité anti-inflammatoire par comparaison avec le lot témoin.
(In general: Carrageenan injected into the paw causes an acute inflammation.)

Assay [4] relates to agrégation plaquettaire au collagène. Nature of the assay: Collagen-induced platelet aggregation in plasma of orally treated rats (ex vivo). On the set-up: species or system rats de souche Wistar. The note with it: Rattus norvegicus, 100 mg/kg oral, 3 hours after treatment, versus control, collagen (bovine tendon extract), read-out: Pourcentage d'inhibition Collagène. The protocol:
as §1, §2, §3, §4
La solution d'A.D.P. est remplacée par une solution de collagène (extrait de tendons bovins).
as §5

Where [5] appears, read: 2 h after ovalbumin injection, read-out: Pourcentage d'activité anti-inflammatoire 2ème heure.
Setting [6] is: 3 h after ovalbumin injection, read-out: Pourcentage d'activité anti-inflammatoire 3ème heure.
Where [7] appears, read: 1 h after carrageenan, read-out: pourcentage d'activité anti-inflammatoire Ière heure.
Setting [8] is: 2 h after carrageenan, read-out: pourcentage d'activité anti-inflammatoire 2ème heure.
The mark [9] stands for this setting: 3 h after carrageenan, read-out: pourcentage d'activité anti-inflammatoire 3ème heure.
Where [10] appears, read: 5 h after carrageenan, read-out: pourcentage d'activité anti-inflammatoire 5ème heure.

Where two headings read alike, the source gives them in different places.

For the molecule `O=c1[nH]c(-c2ccc(F)cc2)cc2sccc12` [dérivé 2, p-fluorophényl-6 thiéno(3,2-c)pyridone-4], the figures for the inhibition at 100 mg/kg in assay [1] and in assay [4] were 60.5% and 91.7%, respectively. Moreover, the inhibition in vivo at 100 mg/kg in assay [2] (setting [5]) worked out at 48%; in assay [2] (setting [6]), 54%; in assay [3] (setting [7]) it was 37%; in assay [3] (setting [8]), 41%; in assay [3] (setting [9]), 46%; in assay [3] (setting [10]), 50%.
With `O=c1[nH]c(-c2ccccc2)cc2occc12` [dérivé 17, Phényl-6 furo(3,2-c)pyridone-4], the inhibition (commonly how much of the control response was suppressed) at 100 mg/kg came out at 59.8% in assay [1] and 90.4% in assay [4]. In addition, the inhibition in vivo at 100 mg/kg in assay [2] (setting [5]) was 45%; in assay [2] (setting [6]) it was 51%; in assay [3] (setting [7]), 41%; in assay [3] (setting [8]), 44%; in assay [3] (setting [9]) it was 49%; in assay [3] (setting [10]) it was 51%.
As for `O=c1[nH]c(-c2ccccc2[N+](=O)[O-])cc2sccc12` [dérivé 9, o-nitrophényl-6 thiéno(3,2-c)pyridone-4], the inhibition at 100 mg/kg came to 59.1% in assay [1] and 90.8% in assay [4]. Also, the inhibition in vivo at 100 mg/kg in assay [2] (setting [5]) came to 46%; in assay [2] (setting [6]) it was 52%; in assay [3] (setting [7]) it was 38%; in assay [3] (setting [8]) it was 41%; in assay [3] (setting [9]) it was 46%; in assay [3] (setting [10]) it was 50%.
In the case of `COc1ccc(-c2cc3sccc3c(=O)[nH]2)cc1` [dérivé 6, p-méthoxyphényl-6 thiéno(3,2-c)pyridone-4], the values for the inhibition at 100 mg/kg in assay [1] and in assay [4] were 62.2% and 91.7%, respectively. The inhibition in vivo at 100 mg/kg in assay [2] (setting [5]) turned out to be 52%; in assay [2] (setting [6]), 58%; in assay [3] (setting [7]), 40%; in assay [3] (setting [8]), 43%; in assay [3] (setting [9]), 49%; in assay [3] (setting [10]), 52%.
Consider `O=c1[nH]c(-c2ccc([N+](=O)[O-])cc2)cc2sccc12` [dérivé 10, p-nitrophényl-6 thiéno(3,2-c)pyridone-4], for which the inhibition at 100 mg/kg turned out to be 60.4% in assay [1] and 90.2% in assay [4]. The inhibition in vivo at 100 mg/kg in assay [2] (setting [5]) was determined as 49%; in assay [2] (setting [6]), 55%; in assay [3] (setting [7]), 41%; in assay [3] (setting [8]) it was 45%; in assay [3] (setting [9]), 51%; in assay [3] (setting [10]), 53%.
On to `COc1cc(-c2cc3sccc3c(=O)[nH]2)cc(OC)c1OC` [dérivé 8, (triméthoxy-3,4,5 phényl)-6 thiéno(3,2-c)py-ridone-4], for which the inhibition at 100 mg/kg in assay [1] turned out to be 60.4%; in assay [4] it was 92.2%. Further, the inhibition in vivo at 100 mg/kg was 46% in assay [2] (setting [5]); 53% in assay [2] (setting [6]); 36% in assay [3] (setting [7]); 39% in assay [3] (setting [8]); 45% in assay [3] (setting [9]); 59% in assay [3] (setting [10]).
For `O=c1[nH]c(-c2ccccc2Cl)cc2sccc12` [dérivé 3, o-chlorophényl-6 thiéno(3,2-c)pyridone-4], the inhibition at 100 mg/kg was 58.8% in assay [1] and 92% in assay [4]. The inhibition in vivo at 100 mg/kg turned out to be 48% in assay [2] (setting [5]); 55% in assay [2] (setting [6]); 37% in assay [3] (setting [7]); 40% in assay [3] (setting [8]); 45% in assay [3] (setting [9]); 48% in assay [3] (setting [10]).
With `O=c1[nH]c(-c2ccccc2)cc2sc(Cl)cc12` [dérivé 12, Chloro-2 phényl-6 thiéno(3,2-c)pyridone-4], the values for the inhibition at 100 mg/kg in assay [1] and in assay [4] were 60.6% and 91.4%, respectively. Also, the inhibition in vivo at 100 mg/kg in assay [2] (setting [5]) is 45%; in assay [2] (setting [6]), 52%; in assay [3] (setting [7]), 36%; in assay [3] (setting [8]), 40%; in assay [3] (setting [9]), 46%; in assay [3] (setting [10]) it was 50%.
With `O=c1[nH]c(-c2cccc(C(F)(F)F)c2)cc2sccc12` [dérivé 11, m-trifluorométhylphényl-6 thiéno(3,2-c)pyri-done-4], the values for the inhibition at 100 mg/kg in assay [1] and in assay [4] were 60.1% and 90.7%, respectively. The inhibition in vivo at 100 mg/kg in assay [2] (setting [5]) was 51%; in assay [2] (setting [6]), 57%; in assay [3] (setting [7]), 40%; in assay [3] (setting [8]) it was 44%; in assay [3] (setting [9]), 49%; in assay [3] (setting [10]), 52%.
Regarding `Cc1cc2c(=O)[nH]c(-c3ccccc3)cc2s1` [dérivé 13, Méthyl-2 phényl-6 thiéno(3,2-c)pyridone-4], the inhibition at 100 mg/kg turned out to be 61.5% in assay [1] and 90.5% in assay [4]. Moreover, the inhibition in vivo at 100 mg/kg in assay [2] (setting [5]) stood at 46%; in assay [2] (setting [6]) it was 53%; in assay [3] (setting [7]), 38%; in assay [3] (setting [8]), 42%; in assay [3] (setting [9]) it was 47%; in assay [3] (setting [10]), 50%.
As for `O=c1[nH]c(-c2cccnc2)cc2sccc12` [dérivé 14, (Pyridyl-3)-6 thiéno(3,2-c)pyridone-4], the inhibition at 100 mg/kg in assay [1] was found to be 60.8%; in assay [4], 91.2%. Moreover, the inhibition in vivo at 100 mg/kg in assay [2] (setting [5]) was determined as 48%; in assay [2] (setting [6]), 54%; in assay [3] (setting [7]), 38%; in assay [3] (setting [8]), 41%; in assay [3] (setting [9]) it was 47%; in assay [3] (setting [10]), 50%.
For the molecule `O=c1[nH]c(-c2ccccc2)cc2sccc12` [dérivé 1, Phényl-6 thiéno(3,2-c)pyridone-4], the inhibition at 100 mg/kg in assay [1] was determined as 62%; in assay [4], 91.4%. Moreover, the inhibition in vivo at 100 mg/kg was 45% in assay [2] (setting [5]); 52% in assay [2] (setting [6]); 35% in assay [3] (setting [7]); 39% in assay [3] (setting [8]); 45% in assay [3] (setting [9]); 49% in assay [3] (setting [10]).
With `COc1ccc(-c2cc3sccc3c(=O)[nH]2)cc1OC` [dérivé 7, (diméthoxy-3,4 phényl)-6 thiéno(3,2-c)pyrido-ne-4], the inhibition at 100 mg/kg was 61.7% in assay [1] and 90.6% in assay [4]. In addition, the inhibition in vivo at 100 mg/kg in assay [2] (setting [5]) worked out at 48%; in assay [2] (setting [6]) it was 55%; in assay [3] (setting [7]) it was 40%; in assay [3] (setting [8]), 44%; in assay [3] (setting [9]) it was 48%; in assay [3] (setting [10]), 51%.
